We go through two compounds from US7745493B2, “Methods of treating tardive dyskinesia and other movement disorders” (priority 1998, dated 2010).

For data set [1] the following is noted: in vivo; cited from earlier work.
Data set [2] deals with person with simple tic of the neck. The experiment in a line: Case Report 5: frequency of simple tic of the neck. Particulars: Case 5. In kind it is in vivo, human. Here is the method: A person had simple tic of the neck that involved forceful extension and rotation of the neck to the right. The tic had started in the context of therapy of depression with dextroamphetamine and pramipexole, a dopamine agonist drug. The tic occurred from 20-50 times per hour, with greater frequency when they were tired or under stress.
They were initially treated with 666 mg of acamprosate three times a day. Within 24 hours after the start of acamprosate therapy, the frequency and severity of the tic decreased dramatically, to a rate of less than 5 per hour. The patient often was free of tics completely for 2 to 3 hours after each dose of acamprosate, after which time the tic would very gradually return. The dose was then raised to 666 mg four times a day. On this dose, rates of more than 5 per hour occurred only under unusually stressful circumstances, and there were frequent tic-free periods of 4 hours or more. […] On a second day without acamprosate, the rate of tics was again over 20 per hour.
[…] then added chelated magnesium, at a dosage of 300 mg of elemental magnesium 3 times a day. With magnesium supplementation, the average tic frequency dropped to 6 hour or less. When 666 mg of acamprosate was given three times a day was given together with magnesium 300 mg three times a day, the usual tic-free period after each acamprosate dose increased from approximately 3 hours to approximately 5 hours.

Data set [3] deals with person one with long-standing TD. The data set can be described thus: Case Report 2: two-sentence memory task. In kind it is in vivo, human. The note with it: Case 2; on acamprosate 666 mg three times daily plus memantine. Here is the method:
The patient was placed on a treatment regime that included administration of 666 mg of acamprosate, three times daily. In this case, acamprosate was added to the patient's regimen, which continued to include memantine. […] Despite past evidence from formal testing that the patient had impaired short-term memory, they performed normally on a two-sentence memory task, which involved testing the patient's recall ability using two sentences containing 13 separate details. On the two-sentence memory task, within three attempts the patient was able to recall 9 details and, using a multiple choice format, was able to recall a total of 11 details. Recall of 9 details on the third attempt would be normal for a middle-aged adult, let alone one […].

Data set [4] has as its system person two with long-standing TD. The experiment in a line: CPT with conditions (Vigilance) (Case 1). In kind it is in vivo, human. Particulars: ON drug. The text has this:
(§1) The following tables report on the results of the neuropsychological tests (Drug I is memantine and Drug II is acamprosate): […]

Data set [5] relates to person with extremely severe tardive dyskinesia and dystonia. The data set can be described thus: Case Report 4: patient self-report of TD treatment effects (weekly log). The format is in vivo, human. The note with it: for Memory: Memory and concentration / Well-being: General well being: 10 is best; for Side effects: 10 is none; for Balance: Difficulty maintaining balance / Face/tongue: Severity of face and tongue movements / Sweating / Trunk: Severity of trunk movements: 10 is worst. The source says: A person had extremely severe tardive dyskinesia and dystonia, as a result of over 15 years of treatment of bipolar disorder with lithium and an assortment of neuroleptics. Their involuntary movements consisted of forced extension of the trunk, torsion of the lower legs, plantar flexion of the left foot, chorea of both arms, writhing of the tongue and grimacing. In addition, they had profuse sweating associated with the involuntary movements. To sit still in a chair, they had to forcefully grip both arms. In the chair, forced extension of the trunk practically lifted them out of the chair. Their trunk and leg movements led to impaired balance, with a staggering gait and frequent near-falls. The continual severe movements were associated with impairment in concentration, which made their work less efficient. By virtue of talent and intelligence, however, they were able to work competitively as a software engineer. Because their bipolar disorder remained an active problem, continued neurolepric treatment was necessary to maintain their mental health. They were maintained on lithium carbonate 300 mg three times a day, and risperidone 4 mg per day.
Their movement disorder had been treated with benzodiazepines, anticholinergics, and dopamine agonists, all without meaningful benefit. They were then treated with acamprosate, first at a dosage of 333 mg three times a day, and then at a dosage of 666 mg three times a day. Acamprosate therapy was then augmented with magnesium sulfate, 300 mg three times a day.
The patient maintained a weekly log of symptoms, which is reproduced here as Table 4. […] For several of their symptoms—trunk movement, balance, and sweating 666 mg of acamprosate three times a day of acamprosate was more efficacious than 333 mg three • 2) The addition of magnesium was associated with further improvement in several symptoms, i.e., movements of the face and tongue, neck and limbs; • 3) Benefits of acamprosate increased with continued therapy; • 4) Mental function, as indicated by subjective memory, improved along with the involuntary movements; • 5) The addition of memantine aggravated the involuntary movements.

Data set [6] concerns 3,338 patients. Particulars: alcoholism treatment; cited from earlier work.
In data set [7] the test system is person two with long-standing TD. The data set can be described thus: Rey Auditory-Verbal Learning Test 15-items (Case 1). Particulars: ON drug. In kind it is in vivo, human. The protocol:
On acamprosate, the patient was able to sustain concentration for prolonged periods. […] The patient's cognitive improvement was also assessed using formal neuropsychological measures. The patient was tested while on the drug, then taken off of the drug and tested two days later. On the drug, the patient was able to recall 13 of the 15 items after a short delay as well as 13 of the 15 items after a long delay, as measured by the Rey Auditory Verbal Learning Test. This was in comparison to the patient's ability while off the drug to recall only 7 of the 15 items after a short delay as well as 8 of the items after a long delay in tests performed. In addition, the patient was able to recognize all 15 of the items while on acamprosate but while off the drug (and while having been off of memantine for over 2 months) the patient could only recognize 10 of the items. The order of testing would give the advantage of familiarity to the off-drug condition. Nonetheless, the difference in favor of the on-drug condition was substantial.
as §1

The test system is the same in data set [8]. The experiment in a line: Finger Tapping (Case 1). The format is in vivo, human. The note with it: ON drug, higher score better.
Source text: as §1

The mark [9] stands for this setting: week 1, regimen 1: 333 mg three times a day.
Where [10] appears, read: week 2, regimen 2: 666 mg three times a day.
The mark [11] stands for this setting: of 15 items, higher score better.

Regarding `CC(=O)NCCCS(=O)(=O)O` [acamprosate, calcium N-acetylhomotaurinate], the “absorption from the GI tract” value in data set [1] is recorded as “irregularly absorbed”. For the same compound, in data set [2] (666 mg four times a day), the tic-free periods is not below 4 h. Moreover, the tic rate result in data set [2] (666 mg three times a day) is recorded as “less than 5 per hour”. For the same compound, in data set [2] (after start of therapy), the “time to decrease of tic frequency and severity” value was not above 24 h. In data set [3], the “details recalled within three attempts (of 13 details)” value is given as 9 and the “total details recalled using multiple choice format (of 13 details)” value is given as 11. Further, the “CPT Correct” value in data set [4] (higher score better) is 100/100. In addition, in data set [4] (lower score better), the “CPT Commission errors” value was found to be 0, the “CPT Omission errors” value was determined as 0 and the “CPT Wrong” value is given as 3. Besides, in data set [5] (setting [9]), the Limbs came out at 6; the Neck was 7; the “Memory: Memory and concentration” value is on record as 9; the “Well-being: General well being” value stood at 8. In addition, in data set [5] (setting [9]), the Side effects worked out at 7; the “Balance: Difficulty maintaining balance” value is listed as 7; the “Face/tongue: Severity of face and tongue movements” value is 5; the Sweating is 8. For the same compound, in data set [5] (setting [9]), the “Trunk: Severity of trunk movements” value came to 8. Also, in data set [5] (setting [10]), the Limbs turned out to be 7; the Neck is on record as 7; the “Memory: Memory and concentration” value was determined as 9; the “Well-being: General well being” value is listed as 8. In data set [5] (setting [10]), the Side effects amounted to 7; the “Balance: Difficulty maintaining balance” value is reported as 5; the “Face/tongue: Severity of face and tongue movements” value is 7; the Sweating is reported as 5. The “Trunk: Severity of trunk movements” value in data set [5] (setting [10]) came to 6. In addition, the “side effects in controlled trials” value in data set [6] is recorded as “no severe medical or neurological side effects”. In addition, in data set [7] (higher score better), the “RAVLT List A Trial 1” value is 10, the “RAVLT List A Trial 5” value is listed as 14, the “RAVLT List B” value was 8 and the “Rey Auditory Verbal Learning Test List A 1-5 total (75 max)” value was found to be 63. Moreover, in data set [7] (lower score better), the “RAVLT False Positive” value was determined as 1, the “RAVLT Intrusions” value is 0 and the “RAVLT Perseverations” value was 5. Further, in data set [7] (setting [11]), the “RAVLT Long-Delay Free Recall” value came out at 13, the “RAVLT Recognition Hits” value was 15 and the “RAVLT Short-Delay Free Recall” value stood at 13.

Consider `CC12CC3CC(C)(C1)CC(N)(C3)C2` [memantine], for which, in data set [8], the “Finger Tapping DH” value is listed as “DH = 59.3” and the “Finger Tapping NDH” value is “NDH = 48.5”.
